Drawing on BindingDB's records for doi:10.1073/pnas.95.18.10836 (Merck Research Laboratories, 1998), this text covers Ki for three molecules.

pKi: −log10 of the molar value.

Assay [1] addresses Somatostatin receptor type 2 (Homo sapiens, UniProt P30874).
The target of assay [2] is Somatostatin receptor type 3 (Homo sapiens, UniProt P32745).
Assay [3] addresses Somatostatin receptor type 5 (Homo sapiens, UniProt P35346).
Assay [4] concerns the target Somatostatin receptor type 4 (Homo sapiens, UniProt P31391).
The target of assay [5] is Somatostatin receptor type 1 (Homo sapiens, UniProt P30872).

Usually pKi stands for the Ki on a negative log10 scale, so that one unit is a factor of ten.

Sequence of Somatostatin receptor type 3 (P32745 whole entry): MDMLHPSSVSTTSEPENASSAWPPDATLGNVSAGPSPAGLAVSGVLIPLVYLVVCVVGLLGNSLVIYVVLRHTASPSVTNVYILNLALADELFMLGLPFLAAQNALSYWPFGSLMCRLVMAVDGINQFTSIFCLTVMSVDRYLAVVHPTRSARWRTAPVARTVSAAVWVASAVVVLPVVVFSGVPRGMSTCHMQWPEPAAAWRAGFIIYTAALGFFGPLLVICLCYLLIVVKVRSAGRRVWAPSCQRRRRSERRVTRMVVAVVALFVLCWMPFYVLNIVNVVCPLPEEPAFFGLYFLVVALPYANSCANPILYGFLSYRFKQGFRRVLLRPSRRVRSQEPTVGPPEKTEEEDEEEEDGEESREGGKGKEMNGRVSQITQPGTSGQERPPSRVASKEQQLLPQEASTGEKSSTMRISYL
Sequence of Somatostatin receptor type 5 (P35346 whole entry): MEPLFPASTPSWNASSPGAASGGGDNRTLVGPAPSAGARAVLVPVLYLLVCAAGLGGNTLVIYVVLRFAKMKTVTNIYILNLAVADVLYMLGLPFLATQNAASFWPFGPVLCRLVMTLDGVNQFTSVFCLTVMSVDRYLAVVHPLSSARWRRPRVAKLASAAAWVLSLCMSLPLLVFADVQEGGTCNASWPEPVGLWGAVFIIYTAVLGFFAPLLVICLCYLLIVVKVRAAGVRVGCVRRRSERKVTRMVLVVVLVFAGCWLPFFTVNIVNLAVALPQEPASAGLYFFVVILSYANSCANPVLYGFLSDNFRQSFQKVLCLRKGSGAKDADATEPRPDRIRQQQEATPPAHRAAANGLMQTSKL
Sequence of Somatostatin receptor type 2 (P30874 whole entry): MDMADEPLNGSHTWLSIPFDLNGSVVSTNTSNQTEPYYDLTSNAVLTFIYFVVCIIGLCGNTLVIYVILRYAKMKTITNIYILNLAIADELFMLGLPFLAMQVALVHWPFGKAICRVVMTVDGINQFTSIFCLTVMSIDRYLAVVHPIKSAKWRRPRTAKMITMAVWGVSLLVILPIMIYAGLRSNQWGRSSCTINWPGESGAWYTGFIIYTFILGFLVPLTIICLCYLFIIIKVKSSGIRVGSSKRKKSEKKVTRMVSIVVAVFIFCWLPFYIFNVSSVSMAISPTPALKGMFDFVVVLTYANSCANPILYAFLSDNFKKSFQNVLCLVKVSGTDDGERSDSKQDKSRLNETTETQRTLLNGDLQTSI
Sequence of Somatostatin receptor type 1 (P30872 whole entry): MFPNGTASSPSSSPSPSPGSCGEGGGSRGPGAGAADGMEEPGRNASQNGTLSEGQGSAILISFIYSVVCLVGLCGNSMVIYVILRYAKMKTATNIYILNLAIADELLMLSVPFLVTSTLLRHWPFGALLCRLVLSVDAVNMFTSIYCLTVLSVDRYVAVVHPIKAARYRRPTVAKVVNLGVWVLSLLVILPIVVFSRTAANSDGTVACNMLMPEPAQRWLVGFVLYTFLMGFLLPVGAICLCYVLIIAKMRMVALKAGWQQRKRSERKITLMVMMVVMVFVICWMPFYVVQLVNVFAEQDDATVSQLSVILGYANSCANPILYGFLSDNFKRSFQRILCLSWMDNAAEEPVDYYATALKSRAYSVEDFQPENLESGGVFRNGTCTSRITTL
Sequence of Somatostatin receptor type 4 (P31391 whole entry): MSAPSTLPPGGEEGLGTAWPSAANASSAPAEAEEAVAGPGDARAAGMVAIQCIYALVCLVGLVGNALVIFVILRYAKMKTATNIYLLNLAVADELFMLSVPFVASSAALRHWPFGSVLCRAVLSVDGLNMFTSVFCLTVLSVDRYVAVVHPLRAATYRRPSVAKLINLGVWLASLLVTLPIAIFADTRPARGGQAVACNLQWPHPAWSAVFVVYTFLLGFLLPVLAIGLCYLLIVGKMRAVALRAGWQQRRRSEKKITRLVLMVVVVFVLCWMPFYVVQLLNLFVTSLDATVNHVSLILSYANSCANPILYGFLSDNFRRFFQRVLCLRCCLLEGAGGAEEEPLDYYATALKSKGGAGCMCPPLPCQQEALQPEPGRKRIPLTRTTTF

In the case of `C[C@@H](c1c[nH]c2ccccc12)[C@@H](NC(=O)N1CCC(n2c(=O)[nH]c3ccccc32)CC1)C(=O)NC(CCCCN)C(=O)OC(C)(C)C` (stereo partly drawn) [2-[[(2R,3S)-2-[[4-[(2-Oxo-2,3-dihydro-1H-benzimidazole)-1-yl]piperidino]carbonylamino]-3-(1H-indole-3-yl)butyryl]amino]-6-aminohexanoic acid tert-butyl ester], the pKi in assay [1] is 11.00; in assay [2], 7.51; in assay [3] it was 6.79; in assay [4], 7.09.
`CC(O)[C@H]1NC(=O)[C@@H](Cc2ccccc2)NC(=O)[C@H]2CCCN2C(=O)[C@H](Cc2ccc(O)cc2)NC(=O)[C@@H](Cc2c[nH]c3ccccc23)NC(=O)[C@@H](CCCCN)NC1=O` (stereo partly drawn) [(5S,8R,11R,14R,17R,19aR)-11-(4-Amino-butyl)-17-benzyl-5-(4-hydroxy-benzyl)-14-(1-hydroxy-ethyl)-8-(1H-indol-3-ylmethyl)-tetradecahydro-3a,6,9,12,15,18-hexaaza-cyclopentacyclooctadecene-4,7,10,13,16,19-hexaone]: the pKi was 9.31 in assay [1]; 5.25 in assay [5]; 5.51 in assay [2]; 5.70 in assay [3]; under 5.00 in assay [4].
For the molecule `CC(C)[C@@H]1NC(=O)[C@H](CCCCN)NC(=O)[C@@H](Cc2c[nH]c3ccccc23)NC(=O)[C@H](Cc2ccc(O)cc2)NC(=O)[C@H](C)N(C)C(=O)[C@H](Cc2ccccc2)NC1=O` [CAS_3086456], the pKi in assay [5] is under 5.00; in assay [2], 6.64; in assay [3] it was 6.63.
